What all share (assay type): biochemical
One experiment addresses T1, hSIRT3 (Homo sapiens, UniProt Q9NTG7).
T1 construct: His-tag; purchased Enzo Life Sciences (Farmingdale, NY)
T1 sequence (Q9NTG7 102-399): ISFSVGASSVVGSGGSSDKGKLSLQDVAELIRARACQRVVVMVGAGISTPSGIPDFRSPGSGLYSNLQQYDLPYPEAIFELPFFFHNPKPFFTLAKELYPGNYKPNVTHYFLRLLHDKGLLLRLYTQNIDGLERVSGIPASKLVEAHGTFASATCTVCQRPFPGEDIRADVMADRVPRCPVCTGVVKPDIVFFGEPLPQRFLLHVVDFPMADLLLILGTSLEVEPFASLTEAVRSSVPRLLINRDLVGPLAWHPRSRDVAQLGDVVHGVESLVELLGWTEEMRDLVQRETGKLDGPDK
Put plainly: Fluorescence-based SIRT3 deacetylation assay using FdL2 peptide, steady state (Conditions I). The note with it: triplicate. Here is the method:
FIG. 4. Effect of top ranked hit compounds on Sirt3 deacetylation activity.
The 6 top ranked compounds from DEL screening were tested modulation effect of SIRT3 using fluorescence-based assay (FIG. 4).
The enzymatic reactions were carried out similar to as described above. The reaction was terminated by adding the 1× developer 2 mM NAM solution and measured the fluorescence on TECAN microplate reader. The raw data were fitted to the defined model equations using GraphPad Prism (GraphPad Software, Inc, CA).

Experiment [1] addresses T2, hSIRT3 102-399 (Homo sapiens, UniProt Q9NTG7).
T2 construct: His-tag; purchased Enzo Life Sciences (Farmingdale, NY)
T2 sequence (Q9NTG7 102-399): T1 sequence (Q9NTG7 102-399)
As to the kind of experiment: HPLC assay of hSIRT3 102-399 deacetylation of MnSOD peptide, Conditions II (non-steady state): 50 μM NAD+, 600 μM peptide. The note with it: for Conditions II, Effect: Conditions II (non-steady state); for Activity test, Conditions II, HPLC: Conditions II: 50 μM NAD+, 600 μM peptide, 10 μM compound, triplicate. As to the method:
FIG. 5. Sirt3 activation by top ranked hit compounds.
The deacetylation activity of SIRT3 was detected in the presence of 10 μM compound of AA8AC40 under non-steady state condition (FIG. 5) using HPLC-based assay. […] The test compound is expected to experience three phases (presteady state, steady-state, and post steady state) during the enzymatic reaction. The pre and post-steady state can be considered as non-steady state, in which the enzyme concentration vs. NAD^+ substrate concentration ratio is high. Depending on the initial ratio of enzyme to limiting substrate in the system (and the ratio of enzyme to test compound concentration), the net effect of test compound over the course of the reaction can be either inhibitory or activating, with activation occurring if this ratio is above a threshold value.
Enzymatic reactions included either 1000 μM NAD^+ and 50 μM MnSOD peptide (Conditions I) or 50 μM NAD^+ and 600 μM peptide substrate (Conditions II) in presence of hit compounds (50 μM (Conditions I) or 10 μM (Conditions II)), in a HDAC buffer (50 mM TRIS-HCl, pH 8.0, containing 137 mM sodium chloride, 2.7 mM potassium chloride, and 1 mM magnesium chloride) dimethyl sulfoxide solution 95/5. […] The reaction was terminated by adding a stopping solution (final concentration of 2% TFA, 5 mM Nicotinamide). The peptide product and substrate were resolved using HPLC (reversed-phase C18 HPLC Column). Solvent A was composed of 90% HPLC grade water and 10% acetonitrile with 0.05% (v/v) TFA. Solvent B was composed of acetonitrile with 0.02% (v/v) TFA. […] Then returned to the starting conditions (0% B) within 5 min. Solvent A percentage (100%) was maintained at 100% for 5 additional minutes (36 min total run time).

Experiment [2] has as its target T2, hSIRT3 102-399. Put plainly: HPLC assay of hSIRT3 102-399 deacetylation of MnSOD peptide, Conditions I (steady state): 1000 μM NAD+, 50 μM MnSOD peptide. The note with it: for Conditions I, Effect: Conditions I (steady state), HPLC/FdL; for Activity test, Conditions I, HPLC: Conditions I: 1000 μM NAD+, 50 μM MnSOD peptide, 50 μM compound, 30 min, triplicate, same values as % control in Table 3. As to the method: […] The peptide product and substrate were resolved using HPLC (reversed-phase C18 HPLC Column). Solvent A was composed of 90% HPLC grade water and 10% acetonitrile with 0.05% (v/v) TFA. Solvent B was composed of acetonitrile with 0.02% (v/v) TFA. […] Then returned to the starting conditions (0% B) within 5 min. Solvent A percentage (100%) was maintained at 100% for 5 additional minutes (36 min total run time).

Molecules are shown by their SMILES.

For the molecule `Nc1nc2n(n1)C(c1ccc(OCc3ccccc3)cc1)CC(c1ccc(Cl)cc1)N2` (stereo not drawn) [FIG. 14], the “Activity test, Conditions I, FdL” value at hSIRT3 amounted to 101.2. Further, at hSIRT3 102-399 [1], the “Conditions II, Effect” value is given as “Activator” and the “Activity test, Conditions II, HPLC” value is on record as 108.1. At hSIRT3 102-399 [2], the “Conditions I, Effect” value is given as “Slight Activator” and the “Activity test, Conditions I, HPLC” value is listed as 106.7.

With `O=C1NCCN(C(=O)c2cccc(-c3cnn4ccccc34)c2)C1CCO` (stereo not drawn) [FIG. 227], at hSIRT3, the “Activity test, Conditions I, FdL” value turned out to be 88.1. Further, at hSIRT3 102-399 [1], the “Conditions II, Effect” value was “Slight Activator” and the “Activity test, Conditions II, HPLC” value was 103.1. Besides, on hSIRT3 102-399 [1] (non-steady state, 10 μM modulator), the “% Control in vitro modulation, Non-Steady state” value is recorded as 103.1 % Control. Also, at hSIRT3 102-399 [2], the “Conditions I, Effect” value is “Inhibitor” and the “Activity test, Conditions I, HPLC” value was 98.2. Further, on hSIRT3 102-399 [2] (steady state, 10 μM modulator), the “% Control in vitro modulation, Steady-state” value is given as 98.2 % Control.

Values taken from patent US20260109713A1, “SIRTUIN MODULATING COMPOUNDS, INCLUDING SIRTUIN ACTIVATING COMPOUNDS, AND APPLICATIONS THEREOF” (CODAGEN BIOSCIENCES, INC., priority 2022, published 2026).
